{
  "source": "ChEMBL document CHEMBL5385961",
  "about": "“In vitro and in vivo evaluation of novel chromeno[2,3-d]pyrimidinones as therapeutic agents for triple negative breast cancer” (RSC Med Chem, 2024)",
  "key": {"Hs-578T [1]": {"test_system": "Hs-578T", "assay": "Cytotoxicity against human Hs-578T cells assessed as reduction in cell proliferation at IC50 measured after 48 hrs by BrdU incorporation assay relative to control", "assay_type": "functional", "set-up": "scale not given: the % may be the effect or the level left"}, "Hs-578T [2]": {"test_system": "Hs-578T", "assay": "Cytotoxicity against human Hs-578T cells assessed as reduction in cell proliferation at 0.5 times IC50 measured after 48 hrs by BrdU incorporation assay relative to control", "assay_type": "functional", "set-up": "scale not given: the % may be the effect or the level left"}, "Hs-578T [3]": {"test_system": "Hs-578T", "assay": "Induction of apoptosis in human Hs-578T cells assessed as increase in late apoptotic cells at IC50 measured after 24 hrs by Annexin V-FITC/PI staining based flow cytometry analysis", "assay_type": "functional, cell-based"}, "Hs-578T [4]": {"test_system": "Hs-578T", "assay": "Cytotoxicity against human Hs-578T cells assessed as cell viability at 10 uM incubated for 72 hrs by SRB assay relative to control", "assay_type": "functional", "settings": "read-out: Activity"}, "Hs-578T [5]": {"test_system": "Hs-578T", "assay": "Induction of apoptosis in human Hs-578T cells assessed as increase in caspase-8 protein expression at IC50 measured after 24 hrs by Western blot analysis", "assay_type": "functional, cell-based"}, "MCF7 [6]": {"test_system": "MCF7", "assay": "Cytotoxicity against human MCF7 cells assessed as cell viability at 30 uM incubated for 72 hrs by SRB assay relative to control", "assay_type": "functional", "settings": "read-out: Activity"}, "Hs-578T [7]": {"test_system": "Hs-578T", "assay": "Induction of apoptosis in human Hs-578T cells assessed as increase in BAD protein expression at IC50 measured after 24 to 48 hrs by Western blot analysis", "assay_type": "functional, cell-based", "settings": "time 24-48 hrs"}, "Hs-578T [8]": {"test_system": "Hs-578T", "assay": "Induction of apoptosis in human Hs-578T cells assessed as increase in early apoptotic cells at IC50 measured after 24 to 48 hrs by Annexin V-FITC/PI staining based flow cytometry analysis", "assay_type": "functional, cell-based", "settings": "time 24-48 hrs"}, "Hs-578T [9]": {"test_system": "Hs-578T", "assay": "Induction of apoptosis in human Hs-578T cells assessed as increase in caspase-9 protein expression at IC50 measured after 24 to 48 hrs by Western blot analysis", "assay_type": "functional, cell-based", "settings": "time 24-48 hrs"}, "Hs-578T [10]": {"test_system": "Hs-578T", "assay": "Induction of cell cycle arrest in human Hs-578T cells assessed as reduction in G0/G1 cell population at IC50 measured after 24 to 48 hrs by RNase/PI staining based flow cytometry analysis", "assay_type": "functional", "settings": "time 24-48 hrs"}, "MDA-MB-231 [11]": {"test_system": "MDA-MB-231", "assay": "Cytotoxicity against human MDA-MB-231 cells assessed as cell viability at 30 uM incubated for 72 hrs by SRB assay relative to control", "assay_type": "functional", "settings": "read-out: Activity"}, "Hs-578T [12]": {"test_system": "Hs-578T", "assay": "Cytotoxicity against human Hs-578T cells assessed as reduction in cell viability at 10 uM incubated for 72 hrs by SRB assay relative to control", "assay_type": "functional"}, "Hs-578T [13]": {"test_system": "Hs-578T", "assay": "Induction of cell cycle arrest in human Hs-578T cells assessed as accumulation of cells at S phase at IC50 measured after 24 hrs by RNase/PI staining based flow cytometry analysis", "assay_type": "functional"}, "MCF7 [14]": {"test_system": "MCF7", "assay": "Cytotoxicity against human MCF7 cells assessed as cell viability at 10 uM incubated for 72 hrs by SRB assay relative to control", "assay_type": "functional", "settings": "read-out: Activity"}, "Hs-578T [15]": {"test_system": "Hs-578T", "assay": "Cytotoxicity against human Hs-578T cells assessed as reduction in cell proliferation at IC50 measured after 24 hrs by BrdU incorporation assay relative to control", "assay_type": "functional", "set-up": "scale not given: the % may be the effect or the level left"}, "Hs-578T [16]": {"test_system": "Hs-578T", "assay": "Induction of cell cycle arrest in human Hs-578T cells assessed as accumulation of cells at G2/M phase at IC50 measured after 24 hrs by RNase/PI staining based flow cytometry analysis", "assay_type": "functional"}, "Hs-578T [17]": {"test_system": "Hs-578T", "assay": "Induction of apoptosis in human Hs-578T cells assessed as increase in caspase-8 protein expression at IC50 measured after 48 hrs by Western blot analysis", "assay_type": "functional, cell-based"}, "[18]": {"assay": "Toxicity in wild type Caenorhabditis elegans N2 assessed as drug tolerance at 0.0001 to 50 uM", "settings": "dose 0.0001-50 µM"}, "Hs-578T [19]": {"test_system": "Hs-578T", "assay": "Antitumor activity against human Hs-578T cells implanted in chick eggs assessed as tumor growth regression at 2 times IC50 administered starting from day 13 and measured 17 days post embryo development by stereomicroscopic analysis", "assay_type": "functional, cell-based", "settings": "time 5.0 day"}, "Hs-578T [20]": {"test_system": "Hs-578T", "assay": "Cytotoxicity against human Hs-578T cells assessed as cell viability at 30 uM incubated for 72 hrs by SRB assay relative to control", "assay_type": "functional", "settings": "read-out: Activity"}, "Hs-578T [21]": {"test_system": "Hs-578T", "assay": "Induction of cell cycle arrest in human Hs-578T cells assessed as accumulation of cells at S phase at IC50 measured after 48 hrs by RNase/PI staining based flow cytometry analysis", "assay_type": "functional"}, "Homo sapiens": {"species_on_record": "Homo sapiens", "assay": "Selectivity index, ratio of IC50 for human MCF-10A cells to IC50 for human Hs-578T cells"}, "[22]": {"assay": "Cytotoxicity against human MCF-10A cells assessed as inhibition of cell growth incubated for 72 hrs by SRB assay", "assay_type": "toxicity, cell-based"}, "Hs-578T [23]": {"test_system": "Hs-578T", "assay": "Antitumor activity against human Hs-578T cells implanted in chick eggs assessed as regression in tumors' perimeter at 2 times IC50 administered starting from day 13 and measured 17 days post embryo development by stereomicroscopic analysis relative to control", "assay_type": "functional", "settings": "time 5 day"}, "Hs-578T [24]": {"test_system": "Hs-578T", "assay": "Cytotoxicity against human Hs-578T cells assessed as inhibition of cell growth incubated for 72 hrs by SRB assay", "assay_type": "functional, cell-based"}, "Hs-578T [25]": {"test_system": "Hs-578T", "assay": "Induction of apoptosis in human Hs-578T cells assessed as reduction in viable cells at IC50 measured after 24 to 48 hrs by Annexin V-FITC/PI staining based flow cytometry analysis", "assay_type": "functional, cell-based", "settings": "time 24-48 hrs"}, "[26]": {"assay": "Toxicity in wild type Caenorhabditis elegans N2 assessed as effect on food consumption at 0.0001 to 50 uM measured daily for 7 days by food clearance assay", "settings": "168 h, dose 0.0001-50 µM, time 7 day"}, "Hs-578T [27]": {"test_system": "Hs-578T", "assay": "Cytotoxicity against human Hs-578T cells assessed as reduction in cell proliferation at 0.5 times IC50 measured after 24 hrs by BrdU incorporation assay relative to control", "assay_type": "functional", "set-up": "scale not given: the % may be the effect or the level left"}, "Hs-578T [28]": {"test_system": "Hs-578T", "assay": "Induction of apoptosis in human Hs-578T cells assessed as increase in cleaved PARP level at IC50 measured after 24 to 48 hrs by Western blot analysis", "assay_type": "functional, cell-based", "settings": "time 24-48 hrs"}, "MDA-MB-231 [29]": {"test_system": "MDA-MB-231", "assay": "Cytotoxicity against human MDA-MB-231 cells assessed as cell viability at 10 uM incubated for 72 hrs by SRB assay relative to control", "assay_type": "functional", "settings": "read-out: Activity"}, "Hs-578T [30]": {"test_system": "Hs-578T", "assay": "Induction of apoptosis in human Hs-578T cells assessed as increase in BID protein expression at IC50 measured after 24 to 48 hrs by Western blot analysis", "assay_type": "functional, cell-based", "settings": "time 24-48 hrs"}},
  "note": "Active and inactive are the calls of the source. The calls are words filed in the database; no cut-off is given here.",
  "data": [
    {"molecule": "O=c1[nH]c(-c2ccccc2)nc2c1Cc1cc(Br)ccc1O2", "values": [
      {"measurement": "Activity", "setting": "Hs-578T [1]", "value": "<=99%"},
      {"measurement": "Activity", "setting": "Hs-578T [2]", "value": "<=50%"},
      {"measurement": "Activity", "setting": "Hs-578T [3]", "value": "Active"},
      {"measurement": "viability at 10 µM", "setting": "Hs-578T [4]", "value": 40.2, "unit": "%"},
      {"measurement": "Activity", "setting": "Hs-578T [5]", "value": "Active"},
      {"measurement": "viability at 30 µM", "setting": "MCF7 [6]", "value": 36.7, "unit": "%"},
      {"measurement": "Activity", "setting": "Hs-578T [7]", "value": "Active"},
      {"measurement": "Activity", "setting": "Hs-578T [8]", "value": "Active"},
      {"measurement": "Activity", "setting": "Hs-578T [9]", "value": "Active"},
      {"measurement": "Activity", "setting": "Hs-578T [10]", "value": "Active"},
      {"measurement": "viability at 30 µM", "setting": "MDA-MB-231 [11]", "value": 52.1, "unit": "%"},
      {"measurement": "Activity", "setting": "Hs-578T [12]", "value": "~50", "unit": "%"},
      {"measurement": "Activity", "setting": "Hs-578T [13]", "value": "inactive"},
      {"measurement": "viability at 10 µM", "setting": "MCF7 [14]", "value": 39.2, "unit": "%"},
      {"measurement": "Activity", "setting": "Hs-578T [15]", "value": "~70", "unit": "%"},
      {"measurement": "Activity", "setting": "Hs-578T [16]", "value": "inactive"},
      {"measurement": "Activity", "setting": "Hs-578T [17]", "value": "inactive"},
      {"measurement": "Activity", "setting": "[18]", "value": "Non-Toxic"},
      {"measurement": "Activity", "setting": "Hs-578T [19]", "value": "Active"},
      {"measurement": "viability at 30 µM", "setting": "Hs-578T [20]", "value": 21.1, "unit": "%"},
      {"measurement": "Activity", "setting": "Hs-578T [21]", "value": "Active"},
      {"measurement": "Ratio IC50", "setting": "Homo sapiens", "value": "> 12.3"},
      {"measurement": "IC50 at 72 h", "setting": "[22]", "value": "> 60", "unit": "µM"},
      {"measurement": "Activity", "setting": "Hs-578T [23]", "value": 6.3, "unit": "%"},
      {"measurement": "IC50", "setting": "Hs-578T [24]", "value": 4.5, "unit": "µM"},
      {"measurement": "Activity", "setting": "Hs-578T [25]", "value": "Active"},
      {"measurement": "Activity", "setting": "[26]", "value": "Non-Toxic"},
      {"measurement": "Activity", "setting": "Hs-578T [27]", "value": "~40", "unit": "%"},
      {"measurement": "Activity", "setting": "Hs-578T [28]", "value": "Active"},
      {"measurement": "viability at 10 µM", "setting": "MDA-MB-231 [29]", "value": 62.4, "unit": "%"},
      {"measurement": "Activity", "setting": "Hs-578T [30]", "value": "Active"}
    ]}
  ]
}
